# Where two headings read alike, the source gives them in different places.
# What was measured:
# [1] = molecular target: GDP-bound KRAS wild-type protein (Homo sapiens, UniProt P01116); assay: Binding to KRAS by surface plasmon resonance (SPR), dissociation constant KD
# Procedure, shortened: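 GDP-loaded biotinylated Avi-tag RAS proteins (E. coli-expressed) captured on a Biotin CAPture chip at ~100–300 RU; single-cycle kinetics at 30°C, 100 µL/min, 75 s injections of rising compound concentrations. HBS pH 7.4 running buffer with 1 mM DTT, 10 mM MgCl2, 10 µM GDP, 4% DMSO. KD from 1:1 binding fit.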
# [2] = system: human lung cancer strain NCI-H441; assay: NCI-H441 cell proliferation inhibitory activity (CellTiter-Glo, 4 days); format: cell-based; conditions: read-out: NCl-H441 IC50
# Procedure, shortened: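 Step one: dispense the test compound in serial DMSO dilutions. Step three: add the reagent and measure […].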
# HRAS wild-type protein = HRAS wild-type protein (Homo sapiens, UniProt P01112); assay: Binding to HRAS by surface plasmon resonance (SPR), KD and KD ratio to KRAS
# Procedure, shortened: (§1)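 Biotinylated GDP-bound RAS was captured at about 100–300 RU. Running buffer: HBS pH 7.4, 10 mM MgCl2, 10 µM GDP, 1 mM DTT, 0.01% Tween 20, 4% DMSO.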
# [3] = molecular target: GDP-bound NRAS wild-type protein (Homo sapiens, UniProt P01111); assay: Binding to NRAS by surface plasmon resonance (SPR), KD and KD ratio to KRAS
# Procedure, shortened: as §1
# [4] = ratio of KD for HRAS wild-type protein to KD for KRAS
# [5] = ratio of KD for GDP-bound NRAS wild-type protein to KD for KRAS
# GDP-bound KRAS wild-type protein, sequence (P01116 1-188 isoform P01116-2): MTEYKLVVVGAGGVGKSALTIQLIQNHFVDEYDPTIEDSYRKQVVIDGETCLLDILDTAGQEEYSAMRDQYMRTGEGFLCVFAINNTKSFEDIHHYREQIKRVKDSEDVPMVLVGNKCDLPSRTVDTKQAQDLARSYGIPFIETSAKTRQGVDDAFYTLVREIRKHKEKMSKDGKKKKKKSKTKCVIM
# GDP-bound NRAS wild-type protein, sequence (P01111 whole entry): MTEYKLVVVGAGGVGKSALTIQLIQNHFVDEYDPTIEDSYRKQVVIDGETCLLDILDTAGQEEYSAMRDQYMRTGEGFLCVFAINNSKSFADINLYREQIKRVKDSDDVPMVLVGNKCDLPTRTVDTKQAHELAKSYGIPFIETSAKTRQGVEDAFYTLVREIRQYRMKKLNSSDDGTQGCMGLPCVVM
# HRAS wild-type protein, sequence (P01112 whole entry): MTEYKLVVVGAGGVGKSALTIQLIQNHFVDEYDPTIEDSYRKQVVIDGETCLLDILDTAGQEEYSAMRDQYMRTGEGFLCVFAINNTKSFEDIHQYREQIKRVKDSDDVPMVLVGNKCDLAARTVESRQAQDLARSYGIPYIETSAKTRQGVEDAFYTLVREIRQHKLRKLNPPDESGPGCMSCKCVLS
Structure (SMILES),Kd ([1]; Single Cycle Kinetics) [nM],"IC50 ([2]; NCI-H441 cells, 4 days) [nM]",HRAS /KRAS (HRAS wild-type protein; [4]),"NRAS /KRAS [3, 5]",Kd ([1]; 1:1 binding model) [nM],"Kd ([1]; Single Cycle Kinetics, 1:1 binding model) [nM]","IC50 ([2]; 50% proliferation inhibitory concentration, four days) [nM]",HRAS /KRAS (HRAS wild-type protein; ratio of KD with respect to HRAS wild-type protein to KD with respect to KRAS),NRAS /KRAS ([3]; ratio of KD with respect to GDP-bound NRAS wild-type protein to KD with respect to KRAS)
CCC[C@H]1C(=O)N[C@@H]([C@@H](C)CC)C(=O)N(C)CC(=O)N(C)[C@H]2C/C=C\CCN(C2=O)[C@@H](Cc2ccc(C)cc2)C(=O)N(C)CC(=O)N[C@@H](CCc2cc(F)c(C(F)(F)F)c(F)c2)C(=O)N2CC3(CC3)C[C@H]2C(=O)NC2(CCC2)C(=O)N(C)[C@@H](C(CC)CC)C(=O)N(C)[C@H](C(=O)N(C)C)CC(=O)N1C [PP3420],0.42,13.2,A (a compound having 10 or more and less than 20 is denoted as A),AA (a compound having 20 or more is denoted as AA),–,–,–,–,–
CCC[C@H]1C(=O)N[C@@H]([C@@H](C)CC)C(=O)N(C)CC(=O)N(C)[C@H]2C/C=C\CCN(C2=O)[C@@H](Cc2ccc(C(F)(F)F)cc2)C(=O)N(C)CC(=O)N[C@@H](CCc2ccc(C(F)(F)F)c(Cl)c2)C(=O)N2CC3(CC3)C[C@H]2C(=O)NC2(CCC2)C(=O)N(C)[C@@H](C2CCCC2)C(=O)N(C)[C@H](C(=O)N(C)C)CC(=O)N1C [PP3440],0.047,12.1,A (a compound having 10 or more and less than 20 is denoted as A),AA (a compound having 20 or more is denoted as AA),–,–,–,–,–
CCc1cc(CC[C@@H]2NC(=O)CN(C)C(=O)[C@H](Cc3ccc(C(F)F)cc3)N3CC/C=C\C[C@@H](C3=O)N(C)C(=O)CN(C)C(=O)[C@H]([C@@H](C)OC)NC(=O)[C@H](CC)N(C)C(=O)C[C@@H](C(=O)N(C)C)N(C)C(=O)[C@H](C(CC)CC)N(C)C(=O)C3(CCC3)N(C)C(=O)[C@@H]3C[C@@H](OC(C)C)CN3C2=O)ccc1C(F)(F)F [PP3500],0.31,12.2,A (a compound having 10 or more and less than 20 is denoted as A),A (a compound having 10 or more and less than 20 is denoted as A),–,–,–,–,–
CCC(CC)[C@H]1C(=O)N(C)[C@H](C(=O)N2CCCCC2)CC(=O)N(C)[C@@H](COC)C(=O)N[C@@H]([C@@H](C)CC)C(=O)N(C)CC(=O)N(C)[C@H]2C/C=C\CCN(C2=O)[C@@H](Cc2ccc(C(F)(F)F)cc2)C(=O)N(C)CC(=O)N[C@@H](CCc2cc(F)c(C(F)(F)F)c(F)c2)C(=O)N2C[C@H](OC(C)C)C[C@H]2C(=O)NC2(CC(C)(C)C2)C(=O)N1C [PP2608],–,53,A (a compound having 10 or more and less than 20 is denoted as A),AA (a compound having 20 or more is denoted as AA),1.4,–,–,–,–
CCO[C@@H]1C[C@H]2C(=O)NC3(CC(C)(C)C3)C(=O)N(C)[C@@H](C3CCCC3)C(=O)N(C)[C@H](C(=O)N(C)CC)CC(=O)N(C)[C@@H]([C@@H](C)OC)C(=O)N[C@@H]([C@@H](C)CC)C(=O)N3CCC[C@H]3C(=O)N(C)[C@H]3C/C=C\CCN(C3=O)[C@@H](Cc3ccc(C(F)(F)F)cc3)C(=O)N(C)CC(=O)N[C@@H](CCc3cc(F)c(C(F)(F)F)c(F)c3)C(=O)N2C1 [PP3172],0.81,69.9,A (a compound having 10 or more and less than 20 is denoted as A),AA (a compound having 20 or more is denoted as AA),–,–,–,–,–
CCO[C@@H]1C[C@H]2C(=O)NC3(CCC3)C(=O)N(C)[C@@H](C(CC)CC)C(=O)N(C)[C@H](C(=O)N3CCCC3)CC(=O)N(C)[C@@H](COC)C(=O)N[C@@H]([C@@H](C)CC)C(=O)N(C)CC(=O)N(C)[C@H]3C/C=C\CCN(C3=O)[C@@H](CC3CCC(F)(F)CC3)C(=O)N(C)CC(=O)N[C@@H](CCc3cc(F)c(C(F)(F)F)c(F)c3)C(=O)N2C1 [PP1440],–,–,–,–,–,0.35,69.7,A (a compound having 10 or more and less than 20 is denoted as A),AA (a compound having 20 or more is denoted as AA)
C=C(C)C[C@H]1C(=O)N(C)[C@H](C(=O)N(C)C)CC(=O)N(C)[C@@H](CCC)C(=O)N[C@@H]([C@@H](C)CC)C(=O)N2CCC[C@H]2C(=O)N(C)[C@H]2C/C=C\CCN(C2=O)[C@@H](Cc2ccc(C(F)(F)F)cc2)C(=O)N(C)CC(=O)N[C@@H](CCc2cc(F)c(C(F)(F)F)c(F)c2)C(=O)N2C[C@H](OCC)C[C@H]2C(=O)N(C)C2(CCC2)C(=O)N1C [PP3339],3.6,104,A (a compound having 10 or more and less than 20 is denoted as A),A (a compound having 10 or more and less than 20 is denoted as A),–,–,–,–,–
